Laboratory results as given in patent US7405211B2, “Therapeutic morpholino-substituted compounds” (AstraZeneca AB, priority 2000, dated 2008).

Key:
Format in all cases: biochemical
[1] = tested on: PI 3-kinase immunoprecipitated from human platelets; assay: In vitro PI 3-kinase assay (32P incorporation into PI); details: PI 3-kinase from human platelets, PI substrate
Method: The effect of TGX-25, TGX-33, TGX-37, TGX-40, TGX-41, TGX-57, TGX-84, TGX-90, TGX-93, TGX-98, TGX-99, TGX-101, TGX-106, TGX-107, TGX-108, TGX-109, TGX-111, TGX-112, TGX-113, TGX-115, TGX-120, TGX-121, TGX-123, TGX-124, TGX-126, TGX-127, TGX-130 or TGX-131on PI 3-kinase activity was determined using an in vitro PI 3-kinase assay. This assay was performed using PI 3-kinase immunoprecipitated from human platelets as the enzyme and PI as the substrate. The PI 3-kinase activity was quantitated by measuring the enzymatic incorporation of [^32P] into PI, forming PI([^32P]-3)P, as previously described (Susa et al., 1992, The Journal of Biological Chemistry 267(32):22951-22956.
Washed human platelets were lysed in Triton X-100 lysis buffer (10 mM Tris, pH 7.4, 1% Triton X-100, 2 mM EDTA, 1 mM PMSF) for 30 minutes. The Triton X-100 insoluble fraction was removed by centrifugation of the cell lysates at 15,000 g for 10 minutes. PI 3-kinase was immunoprecipitated by mixing 500 μg of the cell lysate with 1 μg of a rabbit anti-rat antibody against the p85/110 form of PI 3-kinase and 30 μl of 50% Protein A-sepharose beads for 2 hours at 4° C. The Protein A-sepharose-bound PI 3-kinase was isolated by pelleting the beads at 15,000 g for 5 seconds, and washing three times with ice-old Triton X-100 lysis buffer followed by four washes with PI 3-kinase assay buffer (20 mM HEPES, pH 7.4, 1 mM EGTA, 5 mM MgCl2).
PI stored in CHCl3 was dried under N2, resuspended in the lipid buffer (50 mM HEPES, pH 7.2, 1 mM EDTA) at a final concentration of 330 μg/ml, and sonicated for 6 minutes on ice. PI([^32P]-3)P was generated by mixing the immunoprecipitated PI 3-kinase for 20 minutes with 40 μl of the PI, 10 μl of ATP (1 mM) and ^32P-r-ATP (0.5 μCi, 1 μCi/nmol), 10 μl of 10× kinase buffer, in a final assay volume of 100 μl adjusted with H2O. TGX-25, TGX-33, TGX-37, TGX-40, TGX-41, TGX-57, TGX-84, TGX-90, TGX-93, TGX-98, TGX-99, TGX-101, TGX-106, TGX-107, TGX-108, TGX-109, TGX-111, TGX-112, TGX-113, TGX-115, TGX-120, TGX-121, TGX-123, TGX-124, TGX-126, TGX-127, TGX-130 or TGX-131 was preincubated with the PI 3-kinase for 5 minutes prior to the addition of ATP. The assay was terminated with 100 μl of 1 N HCl, and the PI([^32P]-3)P product extracted with 200 μl chloroform:methanol (1:1) and 500 μl 2 M KCl. The PI([^32P]-3)P in the chloroform phase was resolved by thin layer chromatography using a solvent system containing CHCl3:MeOH:HAC:H2O (43:38:5:7) (v:v:v:v), and visualized by autoradiography. The PI([^32P]-3)P spots were then scraped off from the TLC plates, deacylated with 1 ml methylamine:butanol:methanol (42:9:47) (v:v:v) for 4 hours at 53° C., and quantitated using a liquid scintillation counter (LKB 1209 RackBETA).

PI3K γ = target: T1, PI3K γ (Homo sapiens, UniProt P48736); assay: In vitro enzyme assay PI3K γ (recombinant); details: recombinant γ isoform
T1 construct: made in house
Method: (§1) In vitro enzyme assays were conducted as a primary screen to determine drug candidate isoform affinity and specificity.
(§2) The α and β isoforms of the PI3K were immunoprecipitated from a platelet lysate using an antibody that recognised the p85 regulatory subunit common to both forms of the enzyme. The γ isoform was produced as a recombinant protein in the Thrombogenix laboratories. […] Standard phosphorylation assays using phosphatidylinositol and ^32P were used to measure the enzyme activity in the immunoprecipates in the presence or absence of an inhibitor. Enzyme activity was determined over a range of inhibitor concentrations to establish an IC50 value.

PI3K α/β isoforms = assay: In vitro enzyme assay PI3K α/β; details: immunoprecipitated from platelet lysate
Method: as §1, §2

T1 sequence (P48736 whole entry, species assumed, canonical isoform): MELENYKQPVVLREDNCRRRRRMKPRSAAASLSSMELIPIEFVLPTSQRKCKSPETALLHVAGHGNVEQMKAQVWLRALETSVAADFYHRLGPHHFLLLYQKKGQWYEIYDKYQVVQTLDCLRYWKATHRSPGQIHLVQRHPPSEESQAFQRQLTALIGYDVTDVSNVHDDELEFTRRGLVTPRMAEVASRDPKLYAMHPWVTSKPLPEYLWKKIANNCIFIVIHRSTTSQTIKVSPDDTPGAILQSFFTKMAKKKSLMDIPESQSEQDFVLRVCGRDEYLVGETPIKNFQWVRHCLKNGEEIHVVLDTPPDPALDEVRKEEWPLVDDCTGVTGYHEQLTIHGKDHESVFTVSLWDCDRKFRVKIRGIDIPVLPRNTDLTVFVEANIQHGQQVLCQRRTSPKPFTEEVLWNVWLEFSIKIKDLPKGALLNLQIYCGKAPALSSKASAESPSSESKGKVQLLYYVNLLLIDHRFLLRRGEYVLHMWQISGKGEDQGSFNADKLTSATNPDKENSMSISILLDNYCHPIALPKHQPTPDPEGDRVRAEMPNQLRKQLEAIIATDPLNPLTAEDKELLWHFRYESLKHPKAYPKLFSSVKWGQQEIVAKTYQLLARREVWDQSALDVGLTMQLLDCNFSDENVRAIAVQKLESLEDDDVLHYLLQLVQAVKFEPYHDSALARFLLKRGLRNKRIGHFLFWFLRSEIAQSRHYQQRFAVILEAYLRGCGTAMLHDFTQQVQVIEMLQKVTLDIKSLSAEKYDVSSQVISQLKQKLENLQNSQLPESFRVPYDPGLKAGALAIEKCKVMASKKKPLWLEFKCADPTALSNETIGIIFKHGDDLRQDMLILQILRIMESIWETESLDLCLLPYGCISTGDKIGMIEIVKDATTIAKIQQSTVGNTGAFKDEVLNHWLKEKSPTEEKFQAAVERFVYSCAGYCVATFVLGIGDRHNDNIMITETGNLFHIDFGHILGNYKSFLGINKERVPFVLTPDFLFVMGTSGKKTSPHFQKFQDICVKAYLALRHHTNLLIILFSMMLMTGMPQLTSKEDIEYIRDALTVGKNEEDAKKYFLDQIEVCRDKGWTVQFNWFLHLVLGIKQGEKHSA

Cc1cc(CCc2ccncc2)c2nc(N3CCOCC3)cc(=O)n2c1 [TGX-98]
IC50 [1]: 1 µM

O=c1cc(N2CCOCC2)oc2c(O)cccc12 [TGX-125]
IC50 [1]: 25 µM

O=c1cc(N2CCOCC2)oc2c(OCc3ccccc3)cccc12 [TGX-102]
IC50 (PI3K γ): 2 µM
IC50 [1]: 0.1 µM
IC50 (PI3K α/β isoforms): 0.1 µM

Cc1ccc(Cc2cccc3c(=O)cc(N4CCOCC4)[nH]c23)cc1 [TGX-106]
IC50 [1]: 2 µM

O=c1cc(N2CCOCC2)oc2c(OCc3cccnc3)cccc12 [TGX-132]
IC50 [1]: 1 µM

O=c1cc(N2CCOCC2)[nH]c2c(Oc3ccc(F)cc3)cccc12 [TGX-121]
IC50 (PI3K γ): 5 µM
IC50 [1]: 0.05 µM
IC50 (PI3K α/β isoforms): 0.05 µM

Cc1cc(Nc2ncccc2C)c2nc(N3CCOCC3)cc(=O)n2c1 [TGX-179]
IC50 [1]: 10 µM

Cc1cc(C2CCN(C)C2=O)c2nc(N3CCOCC3)cc(=O)n2c1 (centres unmarked) [TGX-153]
IC50 [1]: 20 µM

Cc1cccc(Oc2cccc3c(=O)cc(N4CCOCC4)[nH]c23)c1 [TGX-127]
IC50 (PI3K γ): 5 to 10 µM
IC50 [1]: 0.05 µM
IC50 (PI3K α/β isoforms): 0.05 µM

O=c1cc(N2CCOCC2)[nH]c2c(Sc3ccccc3)cccc12 [TGX-111]
IC50 (PI3K γ): > 10 µM
IC50 [1]: 0.05 µM
IC50 (PI3K α/β isoforms): 0.05 µM

O=c1cc(N2CCOCC2)nc2c(-c3ccccc3)cccn12 [TGX-37]
IC50 [1]: ~10.5 µM

Cc1c(Oc2ccccc2)ccc2c(=O)cc(N3CCOCC3)oc12 [TGX-159]
IC50 [1]: 10 µM

Cc1cc(Nc2ccccc2OCCN(C)C)c2nc(N3CCOCC3)cc(=O)n2c1 [TGX-162]
IC50 [1]: 2 µM

Cc1cc(Nc2ccc(F)cc2C)c2nc(N3CCOCC3)cc(=O)n2c1 [TGX-170]
IC50 [1]: 0.2 µM

Cc1cc(-c2ccsc2)c2nc(N3CCOCC3)cc(=O)n2c1 [TGX-93]
IC50 [1]: 1 µM

Cc1ccc(Oc2cccc3c(=O)cc(N4CCOCC4)[nH]c23)cc1 [TGX-113]
IC50 [1]: 0.5 µM

O=c1cc(N2CCOCC2)[nH]c2c(Oc3ccccc3F)cccc12 [TGX-143]
IC50 (PI3K γ): 2 µM
IC50 [1]: 0.15 µM
IC50 (PI3K α/β isoforms): 0.15 µM

O=c1cc(N2CCOCC2)oc2c(-c3ccccc3C(F)(F)F)cccc12 [TGX-135, 2-morpholinyl-8-(2-trifluoromethylphenyl)-4H-1benzopyran-4-one]
IC50 [1]: 0.2 µM

O=c1cc(N2CCOCC2)oc2c(-c3ccccc3Cl)cccc12 [TGX-146, 2-morpholinyl-8-(2-chlorophenyl)-4H-1-benzopyran-4-one]
IC50 [1]: 0.5 µM

Cc1cc(NCc2ccccc2)c2nc(N3CCOCC3)cc(=O)n2c1 [TGX-126]
IC50 (PI3K γ): > 10 µM
IC50 [1]: 0.05 µM
IC50 (PI3K α/β isoforms): 0.05 µM

COc1ccccc1CNc1cc(C)cn2c(=O)cc(N3CCOCC3)nc12 [TGX-137]
IC50 (PI3K γ): 5 µM
IC50 [1]: 0.05 µM
IC50 (PI3K α/β isoforms): 0.05 µM

Cc1cc(NCc2ccc(Cl)cc2)c2nc(N3CCOCC3)cc(=O)n2c1 [TGX-108]
IC50 [1]: 1 µM

O=c1cc(N2CCOCC2)[nH]c2c(Cc3ccc(F)cc3)cccc12 [TGX-99]
IC50 [1]: 1 µM

O=c1cc(N2CCOCC2)oc2c(-c3ccc(F)cc3)cccc12 [TGX-165, 2-morpholinyl-8-(4-fluorophenyl)-4H-1-benzopyran-4-one]
IC50 [1]: 1 µM

O=c1cc(N2CCOCC2)oc2cc(OCc3cccnc3)ccc12 [TGX-144]
IC50 [1]: 2 µM

Cc1c(Oc2ccccc2)ccc2c(=O)cc(N3CCOCC3)oc12 [TGX-157]
IC50 [1]: 5 µM

Cc1cc(NCc2ccccn2)c2nc(N3CCOCC3)cc(=O)n2c1 [TGX-161]
IC50 [1]: 0.5 µM

Cc1cc(Nc2ccc(O)cc2C)c2nc(N3CCOCC3)cc(=O)n2c1 [TGX-174]
IC50 (PI3K γ): 5 µM
IC50 [1]: 0.1 µM
IC50 (PI3K α/β isoforms): 0.1 µM
